Test system: hyaluronan export from fibroblasts
Test: Assay for hyaluronan transport/export inhibitors in fibroblast cell culture (hyaluronan in culture medium by ELISA)
Format: cell-based
Details: 48 h, 2 days at 37° C., hyaluronan concentration in culture medium, read-out: Inhibition of hyaluronan export IC50
Protocol: Assay for Hyaluronan Transport/Export Inhibitors in Fibroblast Cell Culture
Trypsinized fibroblasts were suspended in Dulbeccos medium at 10^5 cells/ml and 100 μl aliquots were transferred to a 96 well microtiter plate. The first row received 200 μl of the suspension and 20 μl of the inhibitors of the invention dissolved in phosphate buffered saline at concentrations of 4 mM. A serial dilution of the inhibitors was established by transfer of 100 μl aliquots from the first row to the following rows. All experiments were performed in duplicates. […] The cells were incubated for 2 days at 37° C. and aliquots (5 and 20 μl) of the culture medium were used for measurement of the hyaluronan concentration in the cell culture medium by an ELISA [125]. Briefly, the wells of a 96 well Covalink-NH-microtiter plate (NUNC) were coated with 100 μl of a mixture of […] of hyaluronan (HEALON®), 9.2 μg/ml of N-Hydroxysuccinimide-3-sulfonic acid and 615 μl/ml of 1-ethyl-3-(3-dimethylaminopropyl)-carbodiimide for 2 hours at room temperature and overnight at 4° C. The wells were washed three times with 2 M NaCl, 41 mM MgSO4, 0.05% Tween-20 in 50 mM phosphate buffered saline pH 7.2 (buffer A) and once with 2 M NaCl, 41 mM MgSO4, in phosphate buffered saline pH 7.2. Additional binding sites were blocked by incubation with 300 μl of 0.5% bovine serum albumin in phosphate buffered saline for 30 min at 37° C. Calibration of the assay was performed with standard concentrations of hyaluronan ranging from 15 ng/ml to 6000 ng/ml in equal volumes of culture medium as used for measurement of the cellular supernatants. A solution (50 μl) of the biotinylated hyaluronan binding fragment of aggrecan (Calbiochem) in 1.5 M NaCl, 0.3 M guanidinium hydrochloride, 0.08% bovine serum albumin 0.02% NaN3 25 mM phosphate buffer pH 7.0 was preincubated with 50 μl of the standard hyaluronan solutions or cellular supernatants for 1 hour at 37° C. […] The adsorption was read at 490 nm. The concentrations in the samples were calculated from a logarithmic regression curve of the hyaluronan standard solutions.

SMILES | IC50 [µM]
CC(C)=CCc1c(O)cc(O)c2c1OC(c1ccc(O)cc1)CC2=O (stereo not drawn) [8-Prenylnaringenin] | 15
COc1cc(O)c(CC=C(C)C)c2c1C(=O)CC(c1ccc(O)cc1)O2 (stereo not drawn) [Isoxanthohumol] | 15
COc1cc(O)c(CC=C(C)C)c(O)c1C(=O)/C=C/c1ccc(O)cc1 [Xanthohumol] | 8

Source: patent US20150045423A1, “COMPOUNDS FOR THE PREVENTION AND/OR TREATMENT OF OSTEOARTHROSIS” (Universitaetsklinikum Muenster, priority 2010, published 2015)
